Laboratory results published in ChEMBL document CHEMBL1201862, “PubChem BioAssay data set” (2004).
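Dose response: 5 concentrations. Exposure: 48 h. Format: 96-well plates. Endpoint: linear interpolation; highest concentration if not reached. Abbreviation: GI50, concentration required for 50% inhibition of growth.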 Active and inactive are the calls of the source. Rule as the data show it: active = GI50 up to about 1.1 µM and inactive = higher.

Columns and labels:
Test in all cases: DTP human tumour cell line panel, 48 h
[1] = tested on: 786-0
[2] = tested on: A498
[3] = tested on: A549
[4] = tested on: ACHN
[5] = tested on: CAKI-1
[6] = tested on: CCRF-CEM
[7] = tested on: COLO 205
[8] = tested on: DLD-1
[9] = tested on: DMS-114
[10] = tested on: DMS-273
[11] = tested on: EKVX
[12] = tested on: HCT-116
[13] = tested on: HCT-15
[14] = tested on: HL-60
[15] = tested on: HOP-18
[16] = tested on: HOP-62
[17] = tested on: HOP-92
[18] = tested on: HT-29
[19] = tested on: IGROV-1
[20] = tested on: K562
[21] = tested on: KM-20L2
[22] = tested on: KM12
[23] = tested on: LOX IMVI
[24] = tested on: LXFL 529
[25] = tested on: M14
[26] = tested on: M19-MEL
[27] = tested on: MOLT-4
[28] = tested on: Malme-3M
[29] = tested on: NCI-H226
[30] = tested on: NCI-H23
[31] = tested on: NCI-H460
[32] = tested on: NCI-H522
[33] = tested on: OVCAR-3
[34] = tested on: OVCAR-4
[35] = tested on: OVCAR-5
[36] = tested on: OVCAR-8
[37] = tested on: RPMI-8226
[38] = tested on: RXF 393
[39] = tested on: SF-268
[40] = tested on: SF-295
[41] = tested on: SF-539
[42] = tested on: SK-MEL-28
[43] = tested on: SK-MEL-2
[44] = tested on: SK-MEL-5
[45] = tested on: SK-OV-3
[46] = tested on: SN12C
[47] = tested on: SNB-19
[48] = tested on: SNB-75
[49] = tested on: SNB-78
[50] = tested on: SR
[51] = tested on: SW-620
[52] = tested on: TK-10
[53] = tested on: U-251
[54] = tested on: UACC-257
[55] = tested on: UACC-62
[56] = tested on: UO-31
[57] = tested on: XF498
[58] = tested on: HCC 2998

SMILES: COc1ccc2c(c1)c(Cc1c(C)n(C)c3ccc(OC)cc13)c(C)n2C
- GI50 [1]: 86.1 µM (inactive)
- GI50 [2]: > 100 µM (inactive)
- GI50 [3]: > 100 µM (inactive)
- GI50 [4]: > 100 µM (inactive)
- GI50 [5]: > 100 µM (inactive)
- GI50 [6]: > 100 µM (inactive)
- GI50 [7]: > 100 µM (inactive)
- GI50 [8]: > 100 µM (inactive)
- GI50 [9]: > 100 µM (inactive)
- GI50 [10]: > 100 µM (inactive)
- GI50 [11]: > 100 µM (inactive)
- GI50 [12]: > 100 µM (inactive)
- GI50 [13]: > 100 µM
- GI50 [14]: > 100 µM (inactive)
- GI50 [15]: > 100 µM (inactive)
- GI50 [16]: > 100 µM (inactive)
- GI50 [17]: > 100 µM (inactive)
- GI50 [18]: > 100 µM (inactive)
- GI50 [19]: > 100 µM (inactive)
- GI50 [20]: > 100 µM (inactive)
- GI50 [21]: > 100 µM (inactive)
- GI50 [22]: > 100 µM (inactive)
- GI50 [23]: > 100 µM (inactive)
- GI50 [24]: > 100 µM (inactive)
- GI50 [25]: > 100 µM (inactive)
- GI50 [26]: > 100 µM (inactive)
- GI50 [27]: > 100 µM (inactive)
- GI50 [28]: > 100 µM (inactive)
- GI50 [29]: > 100 µM (inactive)
- GI50 [30]: > 100 µM (inactive)
- GI50 [31]: > 100 µM (inactive)
- GI50 [32]: 34 µM (inactive)
- GI50 [33]: > 100 µM (inactive)
- GI50 [34]: > 100 µM (inactive)
- GI50 [35]: > 100 µM (inactive)
- GI50 [36]: > 100 µM (inactive)
- GI50 [37]: > 100 µM (inactive)
- GI50 [38]: 47.8 µM (inactive)
- GI50 [39]: > 100 µM (inactive)
- GI50 [40]: > 100 µM (inactive)
- GI50 [41]: > 100 µM (inactive)
- GI50 [42]: > 100 µM (inactive)
- GI50 [43]: > 100 µM (inactive)
- GI50 [44]: > 100 µM (inactive)
- GI50 [45]: > 100 µM (inactive)
- GI50 [46]: > 100 µM (inactive)
- GI50 [47]: > 100 µM (inactive)
- GI50 [48]: > 100 µM (inactive)
- GI50 [49]: > 100 µM (inactive)
- GI50 [50]: > 100 µM (inactive)
- GI50 [51]: > 100 µM (inactive)
- GI50 [52]: > 100 µM (inactive)
- GI50 [53]: > 100 µM (inactive)
- GI50 [54]: > 100 µM (inactive)
- GI50 [55]: > 100 µM (inactive)
- GI50 [56]: > 100 µM (inactive)
- GI50 [57]: > 100 µM (inactive)

SMILES: COc1cc(CC(=O)c2cc3c(cc2-c2ccccc2)OCO3)cc(OC)c1OC
- GI50 [1]: > 100 µM (inactive)
- GI50 [2]: 33.3 µM (inactive)
- GI50 [3]: 26.1 µM (inactive)
- GI50 [4]: 6.95 µM (inactive)
- GI50 [6]: 13 µM (inactive)
- GI50 [7]: 56.4 µM (inactive)
- GI50 [8]: 81.1 µM (inactive)
- GI50 [9]: 16.6 µM (inactive)
- GI50 [10]: 40.2 µM (inactive)
- GI50 [11]: 10.8 µM (inactive)
- GI50 [58]: > 100 µM (inactive)
- GI50 [12]: 43.9 µM (inactive)
- GI50 [13]: 66.5 µM
- GI50 [14]: 11.1 µM (inactive)
- GI50 [15]: 16 µM (inactive)
- GI50 [16]: 79.6 µM (inactive)
- GI50 [17]: < 0.01 µM (active)
- GI50 [18]: > 100 µM (inactive)
- GI50 [19]: 23.1 µM (inactive)
- GI50 [20]: 15.8 µM (inactive)
- GI50 [21]: 96.6 µM (inactive)
- GI50 [22]: > 100 µM (inactive)
- GI50 [23]: 0.253 µM (active)
- GI50 [24]: 9.38 µM (inactive)
- GI50 [25]: 45.9 µM (inactive)
- GI50 [27]: 17.7 µM (inactive)
- GI50 [28]: 16.9 µM (inactive)
- GI50 [29]: 14 µM (inactive)
- GI50 [30]: 22.9 µM (inactive)
- GI50 [31]: 67.9 µM (inactive)
- GI50 [32]: 18.7 µM (inactive)
- GI50 [33]: 31 µM (inactive)
- GI50 [34]: 27.1 µM (inactive)
- GI50 [35]: > 100 µM (inactive)
- GI50 [36]: 58.7 µM (inactive)
- GI50 [38]: 30.2 µM (inactive)
- GI50 [39]: 75.7 µM (inactive)
- GI50 [40]: 34.5 µM (inactive)
- GI50 [41]: 17.5 µM (inactive)
- GI50 [42]: 58.3 µM (inactive)
- GI50 [43]: 44.2 µM (inactive)
- GI50 [44]: 6.62 µM (inactive)
- GI50 [45]: 49.3 µM (inactive)
- GI50 [46]: 68.7 µM (inactive)
- GI50 [47]: 72.3 µM (inactive)
- GI50 [48]: 1.18 µM (inactive)
- GI50 [49]: 25.8 µM (inactive)
- GI50 [50]: 19.1 µM (inactive)
- GI50 [51]: 43.4 µM (inactive)
- GI50 [52]: 32.9 µM (inactive)
- GI50 [53]: 71.6 µM (inactive)
- GI50 [54]: 23.4 µM (inactive)
- GI50 [56]: 19.5 µM (inactive)
- GI50 [57]: 17.1 µM (inactive)

SMILES: CN1CCc2c1nc(-c1ccc(Cl)cc1)c1c2N(C)CC1
- GI50 [1]: > 100 µM (inactive)
- GI50 [2]: 19.7 µM (inactive)
- GI50 [3]: 18.3 µM (inactive)
- GI50 [4]: 6.78 µM (inactive)
- GI50 [5]: 6.44 µM (inactive)
- GI50 [6]: 12 µM (inactive)
- GI50 [7]: 2.07 µM (inactive)
- GI50 [8]: 7.66 µM (inactive)
- GI50 [9]: 10.8 µM (inactive)
- GI50 [10]: 14 µM (inactive)
- GI50 [11]: 35.1 µM (inactive)
- GI50 [58]: 19.4 µM (inactive)
- GI50 [12]: 1.85 µM (inactive)
- GI50 [13]: 7.06 µM
- GI50 [14]: 10.7 µM (inactive)
- GI50 [15]: < 0.01 µM (active)
- GI50 [16]: 11.2 µM (inactive)
- GI50 [18]: 4.56 µM (inactive)
- GI50 [19]: 3.06 µM (inactive)
- GI50 [20]: 9.29 µM (inactive)
- GI50 [21]: 0.514 µM (active)
- GI50 [22]: 3.7 µM (inactive)
- GI50 [23]: 5.01 µM (inactive)
- GI50 [24]: 20.1 µM (inactive)
- GI50 [25]: 7.71 µM (inactive)
- GI50 [26]: 9.14 µM (inactive)
- GI50 [27]: 6.28 µM (inactive)
- GI50 [28]: > 100 µM (inactive)
- GI50 [30]: 14.8 µM (inactive)
- GI50 [31]: 15.7 µM (inactive)
- GI50 [33]: 1.51 µM (inactive)
- GI50 [34]: 28.4 µM (inactive)
- GI50 [35]: 24.1 µM (inactive)
- GI50 [36]: 25.5 µM (inactive)
- GI50 [37]: 9.06 µM (inactive)
- GI50 [38]: 10.9 µM (inactive)
- GI50 [39]: 21.5 µM (inactive)
- GI50 [40]: 14.1 µM (inactive)
- GI50 [41]: 15.4 µM (inactive)
- GI50 [43]: > 100 µM (inactive)
- GI50 [44]: 10.5 µM (inactive)
- GI50 [45]: 21.2 µM (inactive)
- GI50 [46]: 23.1 µM (inactive)
- GI50 [47]: 22.5 µM (inactive)
- GI50 [48]: 29.6 µM (inactive)
- GI50 [49]: 28.7 µM (inactive)
- GI50 [51]: 24.4 µM (inactive)
- GI50 [52]: 29.2 µM (inactive)
- GI50 [53]: 3.74 µM (inactive)
- GI50 [54]: 13.7 µM (inactive)
- GI50 [55]: 5.94 µM (inactive)
- GI50 [56]: 10.7 µM (inactive)
- GI50 [57]: 10.1 µM (inactive)
